The text below walks through data of patent publication US11028058B2, “Heterocyclic compounds as adenosine antagonists” (NUVATION BIO INC., priority 2017, dated 2021).

Assay [1] addresses T1, HEK-293 cells expressing human recombinant adenosine A2A receptor (Homo sapiens (Human), UniProt P29274). Briefly: cAMP assay, Assay 1 (HTRF kit). The assay is classed as cell-based. Conditions: HEK293, 100 nM, read-out: A2a cAMP (% inh @ 100 nM). As for the experimental part:
(§1) The functional activity of compounds was tested using one of the two assays to detect the present of cAMP. Activation of G-protein coupled receptors (such as A2A) results in activation of adenylcyclase which converts ATP into cAMP which is used as a downstream signaling molecule. Therefore, molecules which act as GPCR (or specifically A2A receptor) antagonists cause a decrease in intracellular cAMP concentration.
(§2) Both assays used HEK-293 cells expressing human recombinant adenosine A2A receptor were grown prior to the test in media without antibiotic.
12 μL of cells were mixed with 6 μL of the test compound at increasing concentrations and then incubated for 10 min. Thereafter 6 μL of the reference agonist was added at a final concentration corresponding to the historical EC80. The plates were then incubated for 30 min at room temperature. After addition of the lysis buffer and 1 hour incubation, cAMP concentrations were estimated, according to the manufacturer specification, with the HTRF® kit.

Another assay addresses adenosine A2A receptor (Homo sapiens (Human), UniProt P29274). In words: A2A adenosine receptor radioligand binding competition assay (filter plates). As for the experimental part: Binding of selected compounds to the adenosine A2A, A1, A2B, and A3 receptors was tested using a binding competition assay.
The general protocol for the radioligand binding competition assay was as follows. Competition binding was performed in duplicate in the wells of a 96 well plate (Master Block, Greiner, 786201) containing binding buffer (optimized for each receptor), membrane extracts (amount of protein/well optimized for each receptor), radiotracer (final concentration optimized for each receptor), and test compound. Nonspecific binding was determined by co-incubation with 200-fold excess of cold competitor. The samples were incubated in a final volume of 0.1 mL at 25° C. for 60 minutes and then filtered over filter plates. Filters were washed six times with 0.5 mL of ice-cold washing buffer (optimized for each receptor) and 50 μL of Microscint 20 (Packard) were added on each filter. The filter plates were sealed, incubated 15 min on an orbital shaker and scintillation counted with a TopCount for 30 sec/filter.
(§3) For the A2A adenosine receptor radioligand binding assay, the following modifications were made to the general protocol. GF/C filters (Perkin Elmer, 6005174), presoaked in 0.01% Brij for 2 h at room temperature were used. Filters were washed six times with 0.5 mL of ice-cold washing buffer (50 mM Tris pH 7.4) and 50 μL of Microscint 20 (Packard) was added in each well. The plates were then incubated for 15 min on an orbital shaker and then counted with a TopCount™ for 1 min/well. Another radioligand binding assay was used to evaluate the binding affinity for the adenosine A2A receptor assay was performed in duplicate in the wells of a 384 plate. Assay buffer contained DPBS 500 mM, MgCl2 0.1 mM, and 1% DMSO. Membrane-bead suspension was prepared by mixing 25.98 μL of human adenosine A2A membrane preparation (Perkin Elmer, RBHA2AM400UA) at 33.4 μg/mL, 28 μL of ADA at 20 μg/mL, and 932 μL of SPA beads at 3.33 mg/mL) and incubated the mixture for 20 min at room temperature. Mixed 20 μL of radiotracer (^3H-SCH 58261) at 15 nM to each well containing test articles at various concentrations and centrifuge the plate at 1000 rpm for 1 minute. Added 30 μL of the membraine-bead suspension to each well. Sealed the plates and incubated for 1 hr at room temperature with vigorous mixing on a plate mixer. Plates were read on Microbeta^2 (Perkin Elmer, 2450-0010).

Assay [2] concerns the target T1, HEK-293 cells expressing human recombinant adenosine A2A receptor. In words: cAMP assay, Assay 2 (Eu-cAMP tracer / ULight-anti-cAMP). To be noted: Assay 2; for inhibition at 0.1 µM: HEK293, 100 nM, read-out: A2a cAMP % inh @ 100 nM. The class given is cell-based. The protocol:
as §1, §2
Assay 2 (Table B2-2): 100 nL of test articles at 100× of final concentration were transferred to assay plate by Echo. Cells were washed twice with 5 mL of PBS […]. After aspirating the PBS and adding 1.5 mL versine, cells were incubated at 37° C. for 2-5 min. After centrifugation, 4 mL of medium was added and adjusted cell density to 5,000 cells/well with Stimulation Buffer. 10 μL of cells were aliquoted to the assay plate, centrifuged at 1000 rpm for 1 minute, and incubated for 60 minutes at room temperature. 5 μL 4×Eu-cAMP tracer solution and 5 μL 4×Ulight™-anti-cAMP solution were added to assay plate, followed by centrifugation and 60-minute incubation at room temperature. Plates were read on EnVision.

Assay [3] deals with human adenosine A2A membrane preparation (Homo sapiens (Human), UniProt P29274). Briefly: Adenosine A2A receptor radioligand binding assay (SPA beads, 3H-SCH 58261, 384 plate). Conditions: for inhibition at 0.01 µM: read-out: A2a binding % inh @ 10 nM; for inhibition at 0.1 µM: read-out: A2a binding % inh @ 100 nM; for inhibition at 1 µM: read-out: A2a binding % inh @ 1000 nM; for inhibition at 0.001 µM: read-out: A2a binding % inh @ 1 nM; for IC50: Table B1-2. As for the experimental part:
as §3

Chain of human adenosine A2A membrane preparation (P29274 whole entry): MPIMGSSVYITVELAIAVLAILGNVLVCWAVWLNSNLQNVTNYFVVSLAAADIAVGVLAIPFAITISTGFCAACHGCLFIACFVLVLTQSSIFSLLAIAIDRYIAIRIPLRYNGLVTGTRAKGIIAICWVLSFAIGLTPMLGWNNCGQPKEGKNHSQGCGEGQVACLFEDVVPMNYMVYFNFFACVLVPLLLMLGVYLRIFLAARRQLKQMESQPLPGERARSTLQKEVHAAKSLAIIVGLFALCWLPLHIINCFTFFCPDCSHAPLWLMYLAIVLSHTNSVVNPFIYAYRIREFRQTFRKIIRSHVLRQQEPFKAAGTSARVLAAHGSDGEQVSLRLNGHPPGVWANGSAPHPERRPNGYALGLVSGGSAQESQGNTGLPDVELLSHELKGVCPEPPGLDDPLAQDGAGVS
T1 sequence (P29274 whole entry): as above
Chain of adenosine A2A receptor (P29274 whole entry): as above

With `Cc1nc2cc(-c3ncc(N)nc3-c3ccccc3)ccc2[nH]1` [1.9, 5-(2-methyl-1H-benzo[d]imidazol-5-yl)-6-phenylpyrazin-2-amine], the inhibition at 0.1 µM in assay [1] came to 49%.

For the compound `Nc1cnc(-c2cc(Cl)c(O)c(Cl)c2)c(-c2ccccc2)n1` [Compound 1.2, 4-(5-amino-3-phenylpyrazin-2-yl)-2,6-dichlorophenol], the inhibition at 0.1 µM in assay [1] stood at 100%. Also, the “A2A radioligand binding competition assay % residual binding @ 100 nM” value on adenosine A2A receptor is “ND/ND/ND/62%”.

With `CC(=O)Nc1cnc(-c2ccc(O)c(Cl)c2)c(-c2ccccc2)n1` [Compound 1.3, N-(5-(3-chloro-4-hydroxyphenyl)-6-phenylpyrazin-2-yl)acetamide], in assay [1], the inhibition at 0.1 µM came to 100%. Also, at adenosine A2A receptor, the “A2A radioligand binding competition assay % residual binding @ 100 nM” value is given as “ND/ND/ND/57%”.

Take `N#Cc1nc(-c2ccc3ncccc3c2)c(-c2ccccc2)nc1N` [Compound 1.19, 3-amino-5-phenyl-6-(quinolin-6-yl)pyrazine-2-carbonitrile]: the inhibition at 0.1 µM in assay [1] is 100%. Moreover, the “A2A radioligand binding competition assay % residual binding @ 3000 nM” value on adenosine A2A receptor is on record as 4/ND/ND/ND %.

Consider `Nc1cnc(-c2ccc3[nH]ccc3c2)c(-c2ccccc2)n1` [Compound No. 1.4, 5-(1H-indol-5-yl)-6-phenylpyrazin-2-amine], for which the inhibition at 0.1 µM in assay [1] was 1.4%.

As for `CC(C)(C)c1cc(-c2ncc(N)nc2-c2ccccc2)ccc1O` [Compound No. 1.6, 4-(5-amino-3-phenylpyrazin-2-yl)-2-tert-butylphenol], the inhibition at 0.1 µM in assay [1] was 47%.

On to `Nc1cnc(-c2ccc(O)cc2)c(-c2ccccc2)n1` [Compound No. 1.7, 4-(5-amino-3-phenylpyrazin-2-yl)phenol], for which, in assay [1], the inhibition at 0.1 µM is 100%. The “A2A radioligand binding competition assay % residual binding @ 300 nM” value on adenosine A2A receptor is “ND/ND/100/ND %”.

On to `Nc1cnc(-c2ccc(O)c(Cl)c2)c(-c2ccco2)n1` [Compound No. 1.8, 4-(5-amino-3-(furan-2-yl)pyrazin-2-yl)-2-chlorophenol], for which the inhibition at 0.1 µM in assay [1] was 100%. Moreover, at adenosine A2A receptor, the “A2A radioligand binding competition assay % residual binding @ 300 nM” value is given as “ND/ND/39/ND %”.

For the compound `Nc1cnc(-c2ccc3[nH]cnc3c2)c(-c2ccccc2)n1` [Compound No. 1.10, 5-(1H-benzo[d]imidazol-6-yl)-6-phenylpyrazin-2-amine], in assay [1], the inhibition at 0.1 µM came to 100%. Besides, on adenosine A2A receptor, the “A2A radioligand binding competition assay % residual binding @ 100 nM” value amounted to 77%, the “A2A radioligand binding competition assay % residual binding @ 300 nM” value is 70%, the “A2A radioligand binding competition assay % residual binding @ 1000 nM” value was 64% and the “A2A radioligand binding competition assay % residual binding @ 3000 nM” value amounted to 39%.

On to `N#Cc1cc(-c2ncc(N)nc2-c2ccccc2)ccc1O` [Compound No. 1.11, 5-(5-amino-3-phenylpyrazin-2-yl)-2-hydroxybenzonitrile], for which the inhibition at 0.1 µM in assay [1] was 100%. Besides, the “A2A radioligand binding competition assay % residual binding @ 300 nM” value on adenosine A2A receptor was “ND/ND/126/ND %”.

For the compound `Nc1cnc(-c2ccc3ncccc3c2)c(-c2ccccc2)n1` [Compound No. 1.12, 6-phenyl-5-(quinolin-6-yl)pyrazin-2-amine], the inhibition at 0.1 µM in assay [1] was determined as 94%. For the same compound, at adenosine A2A receptor, the “A2A radioligand binding competition assay % residual binding @ 300 nM” value is 66%, the “A2A radioligand binding competition assay % residual binding @ 1000 nM” value amounted to 12% and the “A2A radioligand binding competition assay % residual binding @ 3000 nM” value stood at 12%.

Consider `Nc1cnc(-c2cc(Cl)c3[nH]cnc3c2)c(-c2ccccc2)n1` [Compound No. 1.13, 5-(7-chloro-1H-benzo[d]imidazol-5-yl)-6-phenylpyrazin-2-amine], for which the inhibition at 0.1 µM in assay [1] was found to be 51%. On adenosine A2A receptor, the “A2A radioligand binding competition assay % residual binding @ 100 nM” value is reported as 83%, the “A2A radioligand binding competition assay % residual binding @ 300 nM” value came to 69%, the “A2A radioligand binding competition assay % residual binding @ 1000 nM” value came to 17% and the “A2A radioligand binding competition assay % residual binding @ 3000 nM” value turned out to be 18%.

Consider `Nc1nc(-c2ccccc2)c(-c2ccc3ncccc3c2)nc1Br` [Compound No. 1.14, 3-bromo-6-phenyl-5-(quinolin-6-yl)pyrazin-2-amine], for which the inhibition at 0.1 µM in assay [1] was 100%. At adenosine A2A receptor, the “A2A radioligand binding competition assay % residual binding @ 100 nM” value amounted to 76%, the “A2A radioligand binding competition assay % residual binding @ 300 nM” value is 48%, the “A2A radioligand binding competition assay % residual binding @ 1000 nM” value stood at 29% and the “A2A radioligand binding competition assay % residual binding @ 3000 nM” value was 12%.

In the case of `Nc1cnc(-c2ccc3ncccc3c2)c(-c2ccc(F)cc2)n1` [Compound No. 1.15, 6-(4-fluorophenyl)-5-(quinolin-6-yl)pyrazin-2-amine], the inhibition at 0.1 µM in assay [1] was found to be 0%. Further, the “A2A radioligand binding competition assay % residual binding @ 3000 nM” value at adenosine A2A receptor is 104/ND/ND/ND %.

For the compound `Cc1ccn(-c2nc(N)cnc2-c2ccc3ncccc3c2)n1` [Compound No. 1.280], the inhibition at 0.1 µM in assay [2] came out at 51%. Also, the inhibition at 3 µM in assay [3] (read-out: A2a binding % inh @ 3000 nM) turned out to be 75%.

For `Cn1ccc(-c2nc(N)cnc2-c2ccc3ncccc3c2)n1` [Compound No. 1.285, 6-(1-methyl-1H-pyrazol-3-yl)-5-(quinolin-6-yl)pyrazin-2-amine], in assay [2], the inhibition at 0.1 µM came to 34%. In addition, in assay [3], the inhibition at 0.01 µM was 56%, the inhibition at 0.1 µM worked out at 76% and the inhibition at 1 µM stood at 90%.

In the case of `Cc1ccn(-c2nc(N)cnc2-c2ccc3ncsc3c2)n1` [Compound No. 1.286, 5-(benzo[d]thiazol-6-yl)-6-(3-methyl-1H-pyrazol-1-yl)pyrazin-2-amine], in assay [2], the inhibition at 0.1 µM came out at 20%. In addition, in assay [3], the inhibition at 0.001 µM came out at 40%, the inhibition at 0.01 µM stood at 87%, the inhibition at 0.1 µM was determined as 96% and the inhibition at 1 µM is 86%.

Turning to `Cc1ccn(-c2nc(N)cnc2-c2ccc3[nH]ncc3c2)n1` [Compound No. 1.287, 5-(1H-indazol-5-yl)-6-(3-methyl-1H-pyrazol-1-yl)pyrazin-2-amine], the inhibition at 0.1 µM in assay [2] came to 16%. In assay [3], the inhibition at 0.001 µM came to 42%, the inhibition at 0.01 µM was found to be 77%, the inhibition at 0.1 µM is 90% and the inhibition at 1 µM came to 80%.

With `Cc1ncc(-c2nc(N)cnc2-c2ccc3ncccc3c2)s1` [Compound No. 1.288, 6-(2-methylthiazol-5-yl)-5-(quinolin-6-yl)pyrazin-2-amine], in assay [2], the IC50 was determined as 1050 nM. Moreover, in assay [3], the IC50 is 55.5 nM, the inhibition at 0.001 µM amounted to 42%, the inhibition at 0.01 µM was 83% and the inhibition at 0.1 µM is 86%. In assay [3], the inhibition at 1 µM was 84%.

As for `Cc1ccn(-c2nc(N)c(C#N)nc2-c2ccc3ncccc3c2)n1` [Compound No. 1.290, 3-amino-5-(3-methyl-1H-pyrazol-1-yl)-6-(quinolin-6-yl)pyrazine-2-carbonitrile], in assay [2], the 50% inhibitory concentration (IC50) came out at 35.7 nM. Besides, in assay [3], the IC50 is 3.3 nM, the inhibition at 0.001 µM came to 57%, the inhibition at 0.01 µM was determined as 85% and the inhibition at 0.1 µM was 89%. For the same compound, the inhibition at 1 µM in assay [3] worked out at 89%.
